pIC50: −log10 of the molar value. Structures can show the parent of a compound that is named as a salt.
Columns and labels:
ATM = ATM (Homo sapiens (Human), UniProt Q13315); test: ATM in Cell Western Assay (pKAP1 in etoposide-treated MCF-7 cells); type: cell-based; details: pKAP1 in etoposide-treated MCF-7 cells
Method in brief: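 After paraformaldehyde fixation and Triton X-100 permeabilization, immunostained plates were read by infrared scanning (ODYSSEY CLx). Compound was given as 10 doses, 3-fold dilutions from a 1 μM final top concentration.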

DNA-PK = DNA-PK (Homo sapiens (Human), UniProt P78527); test: DNA-PK Enzyme-Linked Immunosorbent Assay (phosphorylation of GST-p53 (1-101) peptide); type: biochemical; details: ELISA, 20 μM ATP
Method in brief: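 Inhibition measured by 450 nm absorbance after HRP/TMB detection of phospho-Ser15 on immobilized GST-p53 (1-101). The kinase reaction used 0.1 μg/mL DNA-PK and 20 μM ATP, 1 h at 25 °C. Ten 3-fold compound dilutions, top final concentration 100 nM.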

Sequence of ATM (Q13315 whole entry): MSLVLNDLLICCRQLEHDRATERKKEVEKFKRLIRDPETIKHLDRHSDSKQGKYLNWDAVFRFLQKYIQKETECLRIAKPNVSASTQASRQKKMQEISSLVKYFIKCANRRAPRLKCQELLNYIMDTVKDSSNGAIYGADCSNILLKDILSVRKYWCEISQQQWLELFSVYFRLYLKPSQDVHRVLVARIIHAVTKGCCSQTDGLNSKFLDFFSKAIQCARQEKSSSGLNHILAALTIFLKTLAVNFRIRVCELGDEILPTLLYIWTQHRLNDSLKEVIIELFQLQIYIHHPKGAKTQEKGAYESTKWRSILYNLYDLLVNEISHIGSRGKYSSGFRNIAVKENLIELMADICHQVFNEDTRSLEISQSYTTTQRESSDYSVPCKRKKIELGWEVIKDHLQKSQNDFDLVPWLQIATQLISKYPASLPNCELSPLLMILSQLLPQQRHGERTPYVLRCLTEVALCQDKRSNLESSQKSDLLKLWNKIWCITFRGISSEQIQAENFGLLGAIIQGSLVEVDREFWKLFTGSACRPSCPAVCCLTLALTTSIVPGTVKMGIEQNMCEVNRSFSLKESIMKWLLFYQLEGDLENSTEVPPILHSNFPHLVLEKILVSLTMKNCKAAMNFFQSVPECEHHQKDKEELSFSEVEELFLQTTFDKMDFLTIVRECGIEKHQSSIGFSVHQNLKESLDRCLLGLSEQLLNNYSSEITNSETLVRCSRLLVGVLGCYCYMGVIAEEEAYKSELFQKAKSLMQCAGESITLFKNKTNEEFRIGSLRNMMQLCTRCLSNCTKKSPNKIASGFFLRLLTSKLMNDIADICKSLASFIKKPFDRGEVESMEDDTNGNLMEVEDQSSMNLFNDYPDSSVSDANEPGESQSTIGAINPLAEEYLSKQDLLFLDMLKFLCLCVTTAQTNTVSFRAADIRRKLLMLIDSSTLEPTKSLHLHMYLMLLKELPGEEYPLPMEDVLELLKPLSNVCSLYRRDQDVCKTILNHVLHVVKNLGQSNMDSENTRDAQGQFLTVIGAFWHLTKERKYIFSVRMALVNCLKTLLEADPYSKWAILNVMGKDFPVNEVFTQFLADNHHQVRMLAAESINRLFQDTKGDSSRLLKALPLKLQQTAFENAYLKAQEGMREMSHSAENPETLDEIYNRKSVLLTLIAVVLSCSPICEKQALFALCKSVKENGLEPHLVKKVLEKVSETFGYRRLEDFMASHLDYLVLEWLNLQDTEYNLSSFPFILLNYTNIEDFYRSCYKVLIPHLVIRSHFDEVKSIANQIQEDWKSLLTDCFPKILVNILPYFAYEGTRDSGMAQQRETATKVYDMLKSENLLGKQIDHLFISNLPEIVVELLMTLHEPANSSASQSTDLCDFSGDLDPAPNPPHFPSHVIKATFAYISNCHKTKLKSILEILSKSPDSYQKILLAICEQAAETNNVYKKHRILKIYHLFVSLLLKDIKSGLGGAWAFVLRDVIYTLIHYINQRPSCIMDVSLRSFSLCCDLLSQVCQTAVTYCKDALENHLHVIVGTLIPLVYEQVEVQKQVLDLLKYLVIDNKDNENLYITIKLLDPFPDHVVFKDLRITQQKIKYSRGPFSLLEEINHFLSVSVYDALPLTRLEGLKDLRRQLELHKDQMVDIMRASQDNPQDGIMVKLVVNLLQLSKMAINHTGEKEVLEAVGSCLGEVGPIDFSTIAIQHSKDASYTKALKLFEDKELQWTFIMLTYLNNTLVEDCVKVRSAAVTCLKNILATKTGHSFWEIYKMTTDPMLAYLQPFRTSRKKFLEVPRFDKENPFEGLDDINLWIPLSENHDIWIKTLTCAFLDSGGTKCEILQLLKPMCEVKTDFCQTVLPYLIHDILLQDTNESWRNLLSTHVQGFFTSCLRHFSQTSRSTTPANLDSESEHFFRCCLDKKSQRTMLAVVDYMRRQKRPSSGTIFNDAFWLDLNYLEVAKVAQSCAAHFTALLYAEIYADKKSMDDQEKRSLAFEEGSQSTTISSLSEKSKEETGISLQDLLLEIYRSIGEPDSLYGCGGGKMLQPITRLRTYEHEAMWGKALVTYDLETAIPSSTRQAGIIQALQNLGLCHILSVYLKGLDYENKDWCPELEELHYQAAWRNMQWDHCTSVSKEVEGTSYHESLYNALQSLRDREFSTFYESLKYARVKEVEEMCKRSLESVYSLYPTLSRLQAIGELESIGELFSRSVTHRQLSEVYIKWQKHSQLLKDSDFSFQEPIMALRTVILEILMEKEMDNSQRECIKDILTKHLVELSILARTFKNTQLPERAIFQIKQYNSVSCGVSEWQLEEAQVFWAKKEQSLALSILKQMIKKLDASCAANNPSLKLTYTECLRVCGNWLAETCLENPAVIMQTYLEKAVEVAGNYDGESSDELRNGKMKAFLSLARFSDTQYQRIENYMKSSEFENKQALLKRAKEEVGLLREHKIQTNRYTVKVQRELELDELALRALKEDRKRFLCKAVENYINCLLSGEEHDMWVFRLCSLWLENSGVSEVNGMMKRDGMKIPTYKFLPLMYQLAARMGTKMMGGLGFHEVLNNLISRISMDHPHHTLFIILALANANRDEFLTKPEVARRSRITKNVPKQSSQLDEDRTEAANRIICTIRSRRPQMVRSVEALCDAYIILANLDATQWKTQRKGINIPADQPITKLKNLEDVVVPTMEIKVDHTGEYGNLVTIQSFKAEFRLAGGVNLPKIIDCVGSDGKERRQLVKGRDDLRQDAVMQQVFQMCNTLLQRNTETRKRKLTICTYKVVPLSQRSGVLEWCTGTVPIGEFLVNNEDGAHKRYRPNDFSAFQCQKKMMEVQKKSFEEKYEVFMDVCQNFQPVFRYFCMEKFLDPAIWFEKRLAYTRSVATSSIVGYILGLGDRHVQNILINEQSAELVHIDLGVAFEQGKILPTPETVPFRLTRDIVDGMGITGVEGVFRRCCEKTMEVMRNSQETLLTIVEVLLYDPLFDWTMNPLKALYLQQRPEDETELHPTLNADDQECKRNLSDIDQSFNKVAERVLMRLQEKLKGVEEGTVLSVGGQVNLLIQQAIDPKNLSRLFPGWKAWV

Compound | pIC50 (ATM) | pIC50 (DNA-PK)
CO[C@H]1C[C@]2(C1)C(=O)N(C)c1cnc3cc(F)c(-c4cnc(OCCNC(C)C)c(NS(=O)(=O)N(C)C)c4)cc3c12 [Example 389, cis-8′-{5-[(Dimethylsulfamoyl)amino]-6-{2-[(propan-2-yl)amino]ethoxy}pyridine-3-yl}-7′-fluoro-3-Methoxy-3′-methyl-2′,3′-dihydrospiro[cyclobutane-1,1′-pyrrolo[2,3-c]quinoline]-2′-one] | 7.00 to 9.00 | 7.00 to 9.00
CO[C@H]1C[C@@]2(C1)C(=O)N(C)c1cnc3cc(F)c(-c4cnc(OCCNC(C)C)c(NS(=O)(=O)N(C)C)c4)cc3c12 [Example 390] | 7.00 to 9.00 | 7.00 to 9.00
CO[C@H]1C[C@]2(C1)C(=O)N(C)c1cnc3cc(F)c(-c4cnc(N5CCC(N6CCCCC6)CC5)c(NS(C)(=O)=O)c4)cc3c12 [Example 391, cis-N-(2-([1,4′-Bipiperidin]-1′-yl)-5-(7′-fluoro-3-methoxy-3′-methyl-2′-oxo-2′,3′-dihydrospiro[cyclobutane-1,1′-pyrrolo[2,3-c]quinolin]-8′-yl)pyridin-3-yl)methanesulfonamide] | 7.00 to 9.00 | 7.00 to 9.00
CO[C@H]1C[C@@]2(C1)C(=O)N(C)c1cnc3cc(F)c(-c4cnc(N5CCC(N6CCCCC6)CC5)c(NS(C)(=O)=O)c4)cc3c12 [Example 392] | 7.00 to 9.00 | 7.00 to 9.00
CCO[C@H]1C[C@]2(C1)C(=O)N(C)c1cnc3cc(F)c(-c4cnc(OCCNC(C)C)c(NS(C)(=O)=O)c4)cc3c12 [Example 393, cis-N-(5-(3-Ethoxy-7′-fluoro-3′-methyl-2′-oxo-2′,3′-dihydrospiro[cyclobutane-1,1′-pyrrolo[2,3-c]quinolin]-8′-yl)-2-(2-(isopropylamino)ethoxy)pyridin-3-yl) methanesulfonamide] | 7.00 to 9.00 | 7.00 to 9.00
CC(C)NCCOc1ncc(-c2cc3c(cc2F)ncc2c3[C@]3(C[C@H](OC(C)C)C3)C(=O)N2C)cc1NS(C)(=O)=O [Example 395, cis-N-(5-(7′-Fluoro-3-isopropoxy-3′-methyl-2′-oxo-2′,3′-dihydrospiro[cyclobutane-1,1′-pyrrolo[2,3-c]quinolin]-8′-yl)-2-(2-(isopropylamino)ethoxy)pyridin-3-yl)methanesulfonamide] | 7.00 to 9.00 | 7.00 to 9.00
CC(C)NCCOc1ncc(-c2cc3c(cc2F)ncc2c3[C@]3(C[C@H](OC(C)c4ccccc4)C3)C(=O)N2C)cc1NS(C)(=O)=O (stereo partly drawn) [Example 397, cis-N-(5-(7′-Fluoro-3′-methyl-2′-oxo-3-(1-phenylethoxy)-2′,3′-dihydrospiro[cyclobutane-1,1′-pyrrolo[2,3-c]quinolin]-8′-yl)-2-(2-(isopropylamino)ethoxy)pyridin-3-yl)methanesulfonamide] | 7.00 to 9.00 | > 9.30
CC(C)NCCOc1ncc(-c2cc3c(cc2F)ncc2c3[C@]3(C[C@H](Oc4ccccc4)C3)C(=O)N2C)cc1NS(=O)(=O)N(C)C [Example 402, cis-8′-{5-[(Dimethylsulfamoyl)amino]-6-{2-[(propan-2-ylamino]ethoxy}pyridine-3-yl}-7′-fluoro-3′-methyl-3-phenoxy-2′,3′-dihydrospiro[cyclobutane-1,1′-pyrrolo[2,3-c]quinoline]-2′-one hydrochloride] | 7.00 to 9.00 | 7.00 to 9.00
COC[C@H]1C[C@]2(C1)C(=O)N(C)c1cnc3cc(F)c(-c4cnc(OCCNC(C)C)c(NS(C)(=O)=O)c4)cc3c12 [Example 404, cis-N-(5-(7′-Fluoro-3-(methoxymethyl)-3′-methyl-2′-oxo-2′,3′-dihydrospiro[cyclobutane-1,1′-pyrrolo[2,3-c]quinolin]-8′-yl)-2-(2-(isopropylamino)ethoxy)pyridin-3-yl)methanesulfonamide] | 7.00 to 9.00 | 9.00 to 9.30

The remaining lines, values ahead:

pIC50 (ATM) | pIC50 (DNA-PK) | Compound
7.00 to 9.00 | 9.00 to 9.30 | CC(C)NCCOc1ncc(-c2cc3c4c(cnc3cc2F)N(C)C(=O)C42CCC2)cc1NS(=O)(=O)C(C)(C)C [Example 366, N-(5-(7′-Fluoro-3′-methyl-2′-oxo-2′,3′-dihydrospiro[cyclobutane-1,1′-pyrrolo[2,3-c]quinolin]-8′-yl)-2-(2-(isopropylamino)ethoxy)pyridin-3-yl)-2-methylpropane-2-sulfonamide]
7.00 to 9.00 | 7.00 to 9.00 | CC(C)NCCOc1ncc(-c2cc3c4c(cnc3cc2F)N(C)C(=O)C42CCC2)cc1NS(=O)(=O)C1(C)CC1 [Example 367, N-(5-(7′-Fluoro-3′-methyl-2′-oxo-2′,3′-dihydrospiro[cyclobutane-1,1′-pyrrolo[2,3-c]quinolin]-8′-yl)-2-(2-(isopropylamino)ethoxy)pyridin-3-yl)-1-methylcyclopropane-l-sulfonamide]
7.00 to 9.00 | 9.00 to 9.30 | CC(C)NCCOc1ncc(-c2cc3c4c(cnc3cc2F)N(C)C(=O)C42CCC2)cc1NS(=O)(=O)N(C)C [Example 369, 8′-{5-[(Dimethylsulfamoyl)amino]-6-{2-[(propan-2-ylamino]ethoxy′}pyridin-3-yl}-7′-fluoro-3′-methyl-2′,3′-dihydrospiro [cyclobutane-1,1′-pyrrolo[2,3-c]quinoline]-2′-one hydrochloride]
7.00 to 9.00 | 7.00 to 9.00 | CC(C)NCCOc1ncc(-c2cc3c4c(cnc3cc2F)N(C)C(=O)C42CCC2)cc1NS(=O)(=O)N1CCC1 [Example 370, N-(5-(7′-Fluoro-3′-methyl-2′-oxo-2′,3′-dihydrospiro [cyclobutane-1,1′-pyrrolo[2,3-c]quinolin]-8′-yl)-2-(2-(isopropylamino)ethoxy)pyridin-3-yl)azetidine-1-sulfonamide]
7.00 to 9.00 | 7.00 to 9.00 | CC(C)NCCOc1ncc(-c2cc3c4c(cnc3cc2F)N(C)C(=O)C42CCC2)cc1NS(=O)(=O)N1CC(F)C1 [Example 371, 3-Fluoro-N-(5-(7′-fluoro-3′-methyl-2′-oxo-2′,3′-dihydrospiro[cyclobutane-1,1′-pyrrolo[2,3-c]quinolin]-8′-yl)-2-(2-(isopropylamino)ethoxy)pyridin-3-yl)azetidine-1-sulfonamide]
7.00 to 9.00 | 7.00 to 9.00 | CC(C)NCCOc1ncc(-c2cc3c4c(cnc3cc2F)N(C)C(=O)C42CCC2)cc1NS(=O)(=O)N1CCOCC1 [Example 373, N-(5-(7′-Fluoro-3′-methyl-2′-oxo-2′,3′-dihydrospiro [cyclobutane-1,1′-pyrrolo [2,3-c]quinolin]-8′-yl)-2-(2-(isopropylamino)ethoxy)pyridin-3-yl)morpholine-4-sulfonamide hydrochloride]
7.00 to 9.00 | 7.00 to 9.00 | CC(C)NCCOc1ncc(-c2cc3c4c(cnc3cc2F)N(C)C(=O)C42CCC2)cc1NS(=O)(=O)CCN(C)C [Example 375, 2-(Dimethylamino)-N-(5-(7′-fluoro-3′-methyl-2′-oxo-2′,3′-dihydrospiro[cyclobutane-1,1′-pyrrolo[2,3-c]quinolin]-8′-yl)-2-(2-(isopropylamino)ethoxy)pyridin-3-yl)ethane-1-sulfonamide hydrochloride]
7.00 to 9.00 | 7.00 to 9.00 | CN(C)CCCOc1ncc(-c2ccc3ncc4c(c3c2)[C@]2(C[C@@H](O)C2)C(=O)N4C)cc1NS(C)(=O)=O [Example 383, trans-N-(2-(3-(Dimethylamino)propoxy)-5-(3-hydroxy-3′-methyl-2′-oxo-2′,3′-dihydrospiro[cyclobutane-1,1′-pyrrolo[2,3-c]quinolin]-8′-yl)pyridin-3-yl)methanesulfonamide]
7.00 to 9.00 | > 9.30 | CO[C@H]1C[C@@]2(C1)C(=O)N(C)c1cnc3ccc(-c4cnc(OCCNC(C)C)c(NS(C)(=O)=O)c4)cc3c12 [Example 384, trans-N-(2-(2-(Isopropylamino)ethoxy)-5-(3-methoxy-3′-methyl-2′-oxo-2,3′-dihydrospiro[cyclobutane-1,1′-pyrrolo[2,3-c]quinolin]-8′-yl)pyridin-3-yl)methanesulfonamide hydrochloride]
7.00 to 9.00 | > 9.30 | CO[C@H]1C[C@]2(C1)C(=O)N(C)c1cnc3cc(F)c(-c4cnc(OCCNC(C)C)c(NS(C)(=O)=O)c4)cc3c12 [Example 385, cis-N-(5-(7′-Fluoro-3-methoxy-3′-methyl-2′-oxo-2′,3′-dihydrospiro[cyclobutane-1,1′-pyrrolo[2,3-c]quinolin]-8′-yl)-2-(2-(isopropylamino)ethoxy)pyridin-3-yl)methanesulfonamide]
7.00 to 9.00 | 7.00 to 9.00 | CO[C@H]1C[C@]2(C1)C(=O)N(C)c1cnc3cc(F)c(-c4cnc(OCCNC(C)C)c(NS(=O)(=O)C5CC5)c4)cc3c12 [Example 387, cis-N-(5-(7′-Fluoro-3-methoxy-3′-methyl-2′-oxo-2′,3′-dihydrospiro[cyclobutane-1,1′-pyrrolo[2,3-c]quinolin]-8′-yl)-2-(2-(isopropylamino)ethoxy)pyridin-3-yl)cyclopropanesulfonamid]
7.00 to 9.00 | 7.00 to 9.00 | CO[C@H]1C[C@@]2(C1)C(=O)N(C)c1cnc3cc(F)c(-c4cnc(OCCNC(C)C)c(NS(=O)(=O)C5CC5)c4)cc3c12 [Example 388, trans-N-{5-(7′-Fluoro-3-methoxy-3 methyl-2′-oxo-2′,3′-dihydrospiro [cyclobutane-1,1′-pyrrolo[2,3-c]quinolin]-8′-yl)-2-(2-(isopropylamino)ethoxy)pyridin-3-yl)cyclopropanesulfonamide]
9.00 to 9.30 | 7.00 to 9.00 | CC(C)NCCOc1ncc(-c2cc3c(cc2F)ncc2c3[C@]3(C[C@H](Oc4ccccc4)C3)C(=O)N2C)cc1NS(C)(=O)=O [Example 400, cis-N-(5-(7′-Fluoro-3′-methyl-2′-oxo-3-phenoxy-2′,3′-dihydrospiro[cyclobutane-1,1′-pyrrolo[2,3-c]quinolin]-8′-yl)-2-(2-(isopropylamino)ethoxy)pyridin-3-yl)methanesulfonamide]
